The values below come from article PMC8570331, “8-Hydroxyquinoline-Amino Acid Hybrids and Their Half-Sandwich Rh and Ru Complexes: Synthesis, Anticancer Activities, Solution Chemistry and Interaction with Biomolecules” (International Journal of Molecular Sciences, 2021).

Read-outs that look alike come from different tables or passages of the source.

What all share (assay type): physicochemical
Data set [1] can be described thus: Formation constants of RhCp* complexes by ligand displacement with 2-picolylamine. The note with it: pH 7.4, displacement by 2-picolylamine, UV-vis, chloride-free. The text has this:
Besides 2-picolylamine, the rigid aromatic 1,10-phenantroline (phen, Figure 6) or the excess of the 8-hydroxyquinoline ligand itself (Figure S20) also results in the loss of p-cymene. Two main processes were seen upon the addition of two equiv. phen to the complex (Figure 6). The first step is most probably the loss of the arene ring and the formation of a mixed-ligand complex [Ru(II)(HQCl-D-ProH−1)(phen)(H2O)2]^+ (λmax = 500 nm), which is followed by the slower binding of the second phen.
(§1) Agilent Cary 8454 diode array spectrophotometer was utilized to obtain UV-vis spectra in the wavelength range 190–1100 nm. The path length (ℓ) was 1 cm in most cases (the actual ℓ is always indicated in the legends of the figures). The concentrations of the ligands and complexes were between 88 and 240 µM. For HSA and ct-DNA containing samples, complex concentrations were 100 µM, and 0.5 and 2 equiv. biomolecule were added for kinetic studies, respectively. Individual samples contained 0–20 µM HSA and 0–1.75 mM (nucleotide) ct-DNA. Spectra were always background corrected. The computer program HypSpec was used to obtain stability constants.

Data set [2] can be described thus: Proton dissociation constants of the ligands (pH-potentiometry, UV-vis, 1H NMR titrations). To be noted: for pKa: aqueous solution, I = 0.2 M KNO3, T = 25.0 °C. As to the method:
pH-potentiometric measurements were carried out at 25.0 ± 0.1 °C in water in the pH range between 2.0 and 11.5 and at a constant ionic strength of 0.2 M KNO3. The titrations were performed in a carbonate-free KOH solution (0.20 M). The exact concentrations of HNO3 and KOH solutions were determined by pH-potentiometric titrations. An Orion 710A pH-meter equipped with a Metrohm combined electrode (type 6.0234.100) and a Metrohm 665 Dosimat burette were used for the pH-potentiometric measurements. […] The average water ionization constant, pKw, was determined as 13.76 ± 0.01, which is in good agreement with the literature data. The initial volume of the samples was 5.0 mL. The ligand concentration was 1.75 or 2.0 mM. Samples were degassed by bubbling purified argon through them for about 10 min prior to the measurements, and the inert gas was also passed over the solutions during the titrations. The computer program Hyperquad2013 [46] was utilized to establish the stoichiometry of the species and to calculate the equilibrium constants, similarly to that performed in our previous works.
as §1
Bruker Avance III HD Ascend 500 Plus instrument (Billerica, MA, USA) was used for NMR studies. ^1H NMR spectroscopic measurements were carried out with a WATERGATE water suppression pulse scheme in the presence of 10% (v/v) D2O in most cases. DSS internal standard was added to samples to obtain reference peaks. Complex concentrations were 0.5 mM or 1.0 mM, and 0.5 equiv. HSA was added. ^1H NMR titrations were carried out in the presence of 0.2 M KNO3. With the FHA model peptide, the measurements were performed at 0.5 or 1 mM metal complex concentrations, and 1:1, 1:2 or 2:1 peptide-to-metal complex ratios were applied. The computer program HypSpec was used to obtain stability constants.

The nature of data set [3]: Distribution coefficients, shake-flask n-octanol/buffered aqueous solution. To be noted: pH 7.4, n-octanol/buffer, in 100 mM KCl, read-out: logD7.4. Here is the method: It is worth noting that these amino acid hybrids have excellent water solubility due to their zwitterionic form, unlike most 8-hydroxyquinolines.
Distribution coefficients of the ligands as well as of the complexes were determined at pH = 7.4 using the traditional shake-flask method in n-octanol/buffered aqueous solution (20 mM phosphate) at different chloride ion concentrations (4, 24 and 100 mM) using UV-vis spectrophotometry for the analysis. The measurement and data evaluation were performed as described in our former work.

As for `Cc1c(C)c(C)[c-](C)c1C.O=C(O)[C@H]1CCC[NH+]1Cc1cc(Cl)c2cccnc2c1[O-].[Cl-].[Cl-].[Rh+3]` [RhCp*–HQCl-D-Pro, [RhCp*(HQCl-D-Pro)Cl]Cl], the “stability constant logK of the RhCp* complex” value in data set [1] was determined as 13.48 ± 0.03.

As for `O=C(O)[C@H]1CCCCN1Cc1cc(Cl)c2cccnc2c1O` [HQCl-D-hPro, (R)-5-chloro-7-((homoproline-1-yl)methyl)8-hydroxyquinoline], the pKa was more than 11 in data set [2] (1H NMR, read-out: pKa (NhPro/ProH+)); 2.52 ± 0.03 in data set [2] (1H NMR, read-out: pKa (NqH+)); 7.54 ± 0.02 in data set [2] (1H NMR, read-out: pKa (OH)); 11.43 ± 0.01 in data set [2] (UV-vis, read-out: pKa (NhPro/ProH+)); 2.43 ± 0.01 in data set [2] (UV-vis, read-out: pKa (NqH+)); 7.49 ± 0.04 in data set [2] (UV-vis, read-out: pKa (OH)). The pKa in data set [2] (pH-potentiometry, read-out: pKa (NhPro/ProH+)) was more than 11; in data set [2] (pH-potentiometry, read-out: pKa (NqH+)), 2.42 ± 0.04; in data set [2] (pH-potentiometry, read-out: pKa (OH)), 7.52 ± 0.06. The “fraction of the negatively charged species (O−, COO−, NhPro/ProH+)” value in data set [2] (at pH 7.4) worked out at 42%. The logD in data set [3] came to 0.36.

As to `Cc1c(C)c(C)[c-](C)c1C.O=C(O)[C@H]1CCCC[NH+]1Cc1cc(Cl)c2cccnc2c1[O-].[Cl-].[Cl-].[Rh+3]` [RhCp*–HQCl-D-hPro, [RhCp*(HQCl-D-hPro)Cl]Cl], in data set [1], the “stability constant logK of the RhCp* complex” value was found to be 13.35 ± 0.03.
